These results are taken from US20200399264A1, “4-SUBSTITUTED-2-THIAZOLE AMIDES AS ANTIVIRAL AGENTS” (Southern Research Institute, priority 2019, published 2020).

Data set [1] has as its system CHIKV. Briefly: antiviral activity against CHIKV (VTR and EC90). Format: cell-based. The conditions noted are these: Chikungunya virus; for log reduction at 10 µM: read-out: VTR @ 10 μM (logs). An excerpt: As used herein, “EC90,” is intended to refer to the concentration of a substance (e.g., a compound or a drug) that is required for 90% agonism of a biological process, or component of a process, including a protein, subunit, organelle, ribonucleoprotein, etc. In one aspect, an EC90 can refer to the concentration of a substance that is required for 90% agonism in vivo, as further defined elsewhere herein. In a further aspect, […].

A short description of data set [2]: cell cytotoxicity in a cell viability assay (CC50). The conditions noted are these: concentration required for 50% cell survival. Type of data set: cell-based. An excerpt:
As used herein, “CC50,” is intended to refer to the cell cytotoxicity to the concentration of a substance (e.g., a compound or a drug) that is required for 50% cell survival in a cell viability assay in vitro.

The CC50 is the concentration giving 50% cytotoxicity. A low value points to greater toxicity to the cells. The EC90 is the concentration at which the effect reaches the 90% level.

Take `N#Cc1ccc(-c2cccc(-c3csc(NC(=O)C4CCNCC4)n3)c2)cc1` [Compound 11, N-(4-(4′-Cyano-[1,1′-biphenyl]-3-yl)thiazol-2-yl)piperidine-4-carboxamide]: the log reduction at 10 µM in data set [1] worked out at 8.5. In data set [2], this compound returned a CC50 of over 30 µM.
Turning to `CSc1ncccc1C(=O)Nc1nc(-c2cccc(Nc3ccc(C#N)cn3)c2)cs1` [Compound 51, N-(4-(3-((5-cyanopyridin-2-yl)amino)phenyl)thiazol-2-yl)-2-(methylthio)nicotinamide], in data set [1], the 90% effect level (EC90) was put at 4.84 µM and the log reduction at 10 µM turned out to be 2.16. The cytotoxic concentration (CC50) in data set [2] is over 40 µM.
With `CSc1ncccc1C(=O)Nc1nc(-c2cccc(N3CCOCC3)c2)cs1` [Compound 34, 2-(Methylthio)-N-(4-(3-morpholinophenyl)thiazol-2-yl)nicotinamide], the log reduction at 10 µM in data set [1] is 1.88. In data set [2], this compound showed a 50% cytotoxic concentration (CC50) of over 40 µM.
As to `CSc1ncccc1C(=O)Nc1nc(-c2cccc(Nc3ccc(C#N)cc3)c2)cs1` [Compound 37, N-(4-(3-((4-Cyanophenyl)amino)phenyl)thiazol-2-yl)-2-(methylthio)nicotinamide], in data set [1], the 90% effect level (EC90) was put at 0.45 µM and the log reduction at 10 µM is 8.68. Besides, the CC50 in data set [2] is over 40 µM.
Take `COc1ncc(-c2cccc(-c3csc(NC(=O)c4cccnc4SC)n3)c2)cn1` [Compound 28, N-(4-(3-(2-Methoxypyrimidin-5-yl)phenyl)thiazol-2-yl)-2-(methylthio)nicotinamide]: in data set [1], the log reduction at 10 µM came out at 2.52. Also, in data set [2], the CC50 is over 40 µM.
Consider `CSc1ncccc1C(=O)Nc1nc(-c2cccc(Nc3ccc(CN)cc3)c2)cs1` [Compound 45, N-(4-(3-((4-(aminomethyl)phenyl)amino)phenyl)thiazol-2-yl)-2-(methylthio)nicotinamide], for which, in data set [1], the 90% effect concentration (EC90) worked out at 5.8 µM and the log reduction at 10 µM is 1.23. The compound also gave a CC50 in data set [2] of 12.8 µM.
The matching figures for `CSc1ncccc1C(=O)Nc1nc(-c2cccc(-c3ccc(F)cn3)c2)cs1` [Compound 15, N-(4-(3-(5-Fluoropyridin-2-yl)phenyl)thiazol-2-yl)-2-(methylthio)nicotinamide]: 0.33 µM, 5.64 and over 40 µM.
For the compound `N#Cc1ccc(Nc2cccc(-c3csc(NC(=O)C45CC(C#N)(C4)C5)n3)c2)cc1` [Compound 52, 3-cyano-N-(4-(3-((4-cyanophenyl)amino)phenyl)thiazol-2-yl)bicyclo[1.1.1]pentane-1-carboxamide], in data set [1], the EC90 came out at 1.5 µM and the log reduction at 10 µM amounted to 5.58. In addition, the CC50 in data set [2] came to 9 µM.
With `CSc1ncccc1C(=O)Nc1nc(-c2cccc(Nc3cccc(C(F)(F)F)c3)c2)cs1` [Compound 40, 2-(Methylthio)-N-(4-(3-((3-(trifluoromethyl)phenyl)amino)phenyl)thiazol-2-yl)nicotinamide], in data set [1], it took 3.1 µM to reach the 90% level (EC90) and the log reduction at 10 µM is 5.36. This compound yielded a cytotoxic concentration (CC50) in data set [2] of over 40 µM.
The matching figures for `COc1cc(Nc2cccc(-c3csc(NC(=O)c4cccnc4SC)n3)c2)ccc1C#N` [Compound 46, N-(4-(3-((4-yano-3-methoxyphenyl)amino)phenyl)thiazol-2-yl)-2-(methylthio)nicotinamide]: 0.34 µM, 5.06 and over 40 µM.
Take `CC(C)(C)c1ccc(C(=O)Nc2nc(-c3cccc(N4CCNCC4)c3)cs2)cc1` [Compound 30, 4-(Tert-Butyl)-N-(4-(3-(piperazin-1-yl)phenyl)thiazol-2-yl)benzamide]: the log reduction at 10 µM in data set [1] amounted to 5.57. Further, the CC50 in data set [2] was 4.1 µM.
`CSc1ncccc1C(=O)Nc1nc(-c2cccc(Nc3ccccc3C#N)c2)cs1` [Compound 39, N-(4-(3-((2-Cyanophenyl)amino)phenyl)thiazol-2-yl)-2-(methylthio)nicotinamide]: in data set [1], the EC90 worked out at 0.5 µM and the log reduction at 10 µM worked out at 5.23. This compound had a CC50 in data set [2] of over 40 µM.
For `CSc1ncccc1C(=O)Nc1nc(-c2cccc(-c3ccccn3)c2)cs1` [Compound 2, 2-(Methylthio)-N-(4-(3-(pyridin-2-yl)phenyl)thiazol-2-yl)nicotinamide], in data set [1], the 90% effect level (EC90) was put at 0.7 µM and the log reduction at 10 µM amounted to 3.97. The CC50 in data set [2] was over 30 µM.
The matching figures for `COC1CCC(C(=O)Nc2nc(-c3cccc(Nc4ccc(C#N)cc4)c3)cs2)CC1` (stereo not shown) [Compound 50, N-(4-(3-((4-cyanophenyl)amino)phenyl)thiazol-2-yl)-4-methoxycyclohexane-1-carboxamide]: 0.1 µM, 4.53 and 12.4 µM.
The matching figures for `CSc1ncccc1C(=O)Nc1nc(-c2cccc(-c3ccccc3)c2)cs1` [Compound 1, N-(4-([1,1′-Biphenyl]-3-yl)thiazol-2-yl)-2-(methylthio)nicotinamide]: 0.38 µM, 7.82 and over 40 µM.
Regarding `CSc1ncccc1C(=O)Nc1nc(-c2cccc(Nc3cccc(C#N)c3)c2)cs1` [Compound 38, N-(4-(3-((3-Cyanophenyl)amino)phenyl)thiazol-2-yl)-2-(methylthio)nicotinamide], in data set [1], it took 0.15 µM to reach the 90% level (EC90) and the log reduction at 10 µM was 5.72. Also, the CC50 in data set [2] was over 40 µM.
As for `CSc1ncccc1C(=O)Nc1nc(-c2cccc(-c3ccc(C(=O)O)cc3)c2)cs1` [Compound 24, 3′-(2-(2-(Methylthio)nicotinamido)thiazol-4-yl)-[1,1′-biphenyl]-4-carboxylic acid], the log reduction at 10 µM in data set [1] amounted to 1.49. Besides, the CC50 in data set [2] was over 40 µM.
The matching figures for `N#Cc1ccc(-c2cccc(-c3csc(NC(=O)c4cccnc4SC(F)F)n3)c2)cc1` [Compound 6, N-(4-(4′-Cyano-[1,1′-biphenyl]-3-yl)thiazol-2-yl)-2-((difluoromethyl)thio)nicotinamide]: 7.6 and over 30 µM.
The matching figures for `CSc1ncccc1C(=O)Nc1nc(-c2cccc(-c3ccc(C#N)cc3)n2)cs1` [Compound 13, N-(4-(6-(4-Cyanophenyl)pyridin-2-yl)thiazol-2-yl)-2-(methylthio)nicotinamide]: 2.72 and 16.3 µM.
Consider `CSc1ncccc1C(=O)Nc1nc(-c2cc(F)cc(-c3ccc(C#N)cc3)c2)cs1` [Compound 19, N-(4-(4′-Cyano-5-fluoro-[1,1′-biphenyl]-3-yl)thiazol-2-yl)-2-(methylthio)nicotinamide], for which, in data set [1], the EC90 came out at 0.19 µM and the log reduction at 10 µM came to 6.1. For the same compound, in data set [2], the CC50 was over 30 µM.
`N#Cc1ccc(Nc2cccc(-c3csc(NC(=O)C45CC(C(=O)O)(C4)C5)n3)c2)cc1` [Compound 42, 3-((4-(3-((4-Cyanophenyl)amino)phenyl)thiazol-2-yl)carbamoyl)bicyclo[1.1.1]pentane-1-carboxylic Acid]: in data set [1], the EC90 was over 10 µM and the log reduction at 10 µM worked out at 0. Moreover, the CC50 in data set [2] is over 40 µM.
`CSc1ncccc1C(=O)Nc1nc(-c2cc(Cl)cc(Nc3ccc(C#N)cc3)c2)cs1` [Compound 49, N-(4-(3-chloro-5-((4-cyanophenyl)amino)phenyl)thiazol-2-yl)-2-(methylthio)nicotinamide]: in data set [1], the EC90 amounted to 0.21 µM and the log reduction at 10 µM turned out to be 5.84. Besides, the CC50 in data set [2] was over 40 µM.
Take `COC(=O)c1ccc(-c2cccc(-c3csc(NC(=O)c4cccnc4SC)n3)c2)cc1` [Compound 23, Methyl 3′-(2-(2-(methylthio)nicotinamido)thiazol-4-yl)-[1,1′-biphenyl]-4-carboxylate]: in data set [1], the EC90 was 0.822 µM and the log reduction at 10 µM came to 8.69. The CC50 in data set [2] was over 40 µM.
In the case of `CSc1ncccc1C(=O)Nc1nc(-c2cccc(N3CCN(C(C)=O)CC3)c2)cs1` [Compound 32, N-(4-(3-(4-acetylpiperazin-1-yl)phenyl)thiazol-2-yl)-2-(methylthio)nicotinamide], in data set [1], the log reduction at 10 µM was under 1. This compound gave a CC50 in data set [2] of over 40 µM.
The matching figures for `CSc1ncccc1C(=O)Nc1nc(-c2cccc(N3CCCC3=O)c2)cs1` [Compound 35, 2-(Methylthio)-N-(4-(3-(2-oxopyrrolidin-1-yl)phenyl)thiazol-2-yl)nicotinamide]: under 1 and 39.4 µM.
As to `CSc1ncccc1C(=O)Nc1nc(-c2cccc(N3CCN(S(C)(=O)=O)CC3)c2)cs1` [Compound 33, N-(4-(3-(4-(methylsulfonyl)piperazin-1-yl)phenyl)thiazol-2-yl)-2-(methylthio)nicotinamide], in data set [1], the log reduction at 10 µM was found to be 2.04. This compound also had a CC50 in data set [2] of over 40 µM.
Take `CSc1ncccc1C(=O)Nc1nc(-c2cc(-c3ccc(C#N)cc3)ccc2F)cs1` [Compound 17, N-(4-(4′-Cyano-4-fluoro-[1,1′-biphenyl]-3-yl)thiazol-2-yl)-2-(methylthio)nicotinamide]: in data set [1], the EC90 was 0.34 µM and the log reduction at 10 µM was found to be 5.75. The compound further showed a CC50 in data set [2] of 25 µM.
The matching figures for `CSc1ncccc1C(=O)Nc1nc(-c2cccc(-c3ccc(CN)cc3)c2)cs1` [Compound 26, N-(4-(4′-(aminomethyl)-[1,1′-biphenyl]-3-yl)thiazol-2-yl)-2-(methylthio)nicotinamide]: 0.75 µM, 8.75 and over 40 µM.
Regarding `CSc1ncccc1C(=O)Nc1nc(-c2cc(C(=O)O)cc(-c3ccc(C#N)cc3)c2)cs1` [Compound 21, 4′-cyano-5-(2-(2-(methylthio)nicotinamido)thiazol-4-yl)-[1,1′-biphenyl]-3-carboxylic Acid], the log reduction at 10 µM in data set [1] is under 1. The compound also had a CC50 in data set [2] of over 40 µM.
